The values below come from patent publication US10251867B2, “Dosing regimen for a selective S1P1 receptor agonist” (ACTELION PHARMACEUTICALS LTD, priority 2008, dated 2019).

Read-outs that look alike come from different tables or passages of the source.

One series concerns healthy male subjects. The series can be described thus: Single-ascending dose (SAD) study AC-058-101, heart rate. To be noted: without up-titration; 50 mg SAD, Day 1. Format: in vivo, human. On the procedure:
In the single-ascending dose (SAD) study (AC-058-101), Compound 1 was administered orally to 6 groups of […] (aged 21-47 years). Doses of 1, 3, 8, 20, 50 and 75 mg were given to sequential groups of 8 subjects (6 on active drug and 2 on placebo) in a randomized, double-blind, placebo-controlled design. The dose of 20 mg was given once in the fasted and once in the fed condition, to assess any food effects on the pharmacokinetics of Compound 1. ECGs were recorded, clinical laboratory parameters, vital signs, pulmonary function, neurological assessments (in the 75-mg dose group), plasma levels of Compound 1, and peripheral lymphocyte counts (total and subsets) were determined. All 48 randomized subjects were evaluable and no subjects withdrew or discontinued from the study. All subjects treated with Compound 1 (n=36) were included in the pharmacokinetic (PK) and pharmacodynamic (PD) analysis.

For series [1], the system named is healthy male and female subjects. The series can be described thus: Multiple-ascending dose (MAD) study AC-058-102 Part A, heart rate without up-titration. Type of series: in vivo, human. To be noted: Day 1, Part A. The method, then:
In Part A of the multiple-ascending dose (MAD) study (AC-058-102), Compound 1 was administered orally with doses of 5, 10, and 20 mg once-daily for 7 days to healthy male and female subjects (aged 22-58 years, 1:1 sex ratio) in a randomized, double-blind, placebo-controlled design. At each dose level, a group of 10 subjects were randomized to Compound 1 (8), or placebo (2). In Part A, all 30 randomized subjects completed the study and the 24 subjects who were treated with Compound 1 were included in the PK analysis.

A further series concerns subjects. The series can be described thus: MAD study AC-058-102 Part B, up-titration scheme (10/20/40 mg), heart rate and ECG. Format: in vivo, human. To be noted: for Mean HR reduction (2.5 h post-dose vs pre-dose): with up-titration, Part B 40-mg dose group. The method, then:
In Part B of the MAD study, an up-titration scheme was implemented in order to reduce first-dose effects of Compound 1 on sinus node automaticity and atrioventricular- (AV-) conduction. Treatment with Compound 1 started for 4 days with 10 mg once daily, followed by 4 days with 20 mg once daily, and 7 days with 40 mg once daily. Seventeen subjects (nine females and eight males, aged 18-43 years) were randomized. Thirteen subjects received active treatment and four subjects received matching placebo. A total of 15 out of the 17 subjects completed the study as scheduled. […] The 11 subjects treated with 40-mg Compound 1 who completed the study were included in the PK analysis of Compound 1.

Series [2] has as its system humans. Format: in vivo, human. An excerpt: All of these effects wane with repeated dosing. […] The acute effects on heart rate, atrioventricular conduction, or fatigue and dizziness, although not seriously adverse, are undesirable, and methods to minimize these effects would be valuable for maximizing the tolerability and safety of Compound 1, and other selective S1P1 receptor agonists, and minimizing associated monitoring requirements, in the early phase of dosing initiation, or, after a drug interruption, at re-initiation of drug therapy.
Desensitization has been sustained over this 24-hour dosing interval. […] Desensitization has not been sustained over this 7-day dosing interval of the 20-mg dose. […]

The test system of series [3] is multiple sclerosis patients. To be noted: cited from earlier work.
Series [4] concerns humans. The following applies: cited from earlier work.

As for `CCC/N=C1\S/C(=C\c2ccc(OC[C@H](O)CO)c(Cl)c2)C(=O)N1c1ccccc1C` [Compound 1, (R)-5-[3-chloro-4-(2,3-dihydroxy-propoxy)-benz[Z]ylidene]-2-([Z]-propylimino)-3-o-tolyl-thiazolidin-4-one], the entries for the “Mean HR reduction (2.5 h post-dose vs baseline)” value (in the series with healthy male subjects; in series [1] (10 mg); in series [1] (20 mg)) were 18 bpm, 14 bpm and 22 bpm, respectively. In the series with subjects (Part B), the “Second or third degree AV-blocks” value is “No second or third degree AV-blocks were observed”. In the series with subjects (Part B, multiple dosing), the “Effects on other ECG variables” value is reported as “No relevant effects on other ECG variables were recorded”. For the same compound, the “Discontinuation of dosing due to adverse events” value in the series on subjects (Part B, 13 subjects on active treatment) is given as “Dosing was discontinued in two subjects on active treatment due to adverse events”. Moreover, in the series on subjects (Part B, after first 10 mg dose on Day 1), the AV-block first degree entry was “only one subject reported a transient AV-block first degree”. The “Mean HR reduction at 2.5 h post-dose vs pre-dose” value with subjects (Part B, day 2 (10 mg)) was found to be 2 bpm; in the series on subjects (Part B, day 3 (10 mg)), 1 bpm; in the series on subjects (Part B, day 4 (10 mg)) it was 1 bpm; in the series with subjects (Part B, day 6 (20 mg)), 4 bpm; in the series with subjects (Part B, day 7 (20 mg)), 3 bpm; in the series on subjects (Part B, day 8 (20 mg)), 3 bpm. Further, the “Mean HR reduction (2.5 h post-dose vs pre-dose)” value was 14 bpm with subjects (10 mg, Day 1); 9 bpm in the series with subjects (20 mg, Day 5); 4 bpm in the series on subjects (40 mg, Day 9). In the series on humans [2] (in vivo), the “Acute effects on heart rate and rhythm and fatigue/dizziness, dose comparison” value was “milder at 10 mg than at 20 mg”. Moreover, the “Effect on heart rate” value with humans [2] (in vivo) is “transiently reduces heart rate”. Also, the Fatigue or dizziness entry in the series on humans [2] (in vivo) is “Occasional fatigue or dizziness”. For the same compound, the Heart rhythm result in the series with humans [2] (in vivo) is given as “irregular heart rhythm (so-called Wenckebach rhythm)”. Also, the “PR interval in the electrocardiogram (ECG)” value in the series with humans [2] (in vivo) is recorded as “transient increases in the PR interval”. Also, the “Time of maximal heart rate effect after administration” value in the series with humans [2] (in vivo) was in the range of 1 to 3 h. Further, in the series on humans [2] (in vivo, po), the “Acute heart rate reduction” value was “results in an acute heart rate reduction on Day 1”. For the same compound, the “Acute heart rate reduction compared to the pre-dose value” with humans [2] (in vivo, po) is “no longer observed”. Further, the “Number of peripheral blood lymphocytes” value in the series on humans [2] (repeated daily oral dosing of 5 mg or more) is “consistent, sustained, and dose-dependent reduction in the number of peripheral blood lymphocytes”.
Take `CCCCCCCCc1ccc(CCC(N)(CO)CO)cc1` [FTY720]: the “Rate of clinical relapses” value in series [3] is “reduce the rate of clinical relapses”. Also, in the series on humans [4], the “Effect on heart rate” value was “reduces heart rate in humans”.
